Experimental data reported in BigSolDB 2.1.

FC(F)(F)c1cccnc1Cl
solubility (mole fraction)
Conditions | 273.15 K | 278.15 K | 283.15 K | 288.15 K | 293.15 K | 298.15 K | 303.15 K
in dichloromethane | 0.281 | 0.365 | 0.41 | 0.469 | 0.551 | 0.625 | 0.741
in ethanol | 0.137 | 0.182 | 0.253 | 0.355 | 0.475 | 0.635 | 0.875
in n-heptane | 0.037 | 0.0552 | 0.0887 | 0.14 | 0.222 | 0.36 | 0.556
in n-hexane | 0.046 | 0.0733 | 0.118 | 0.199 | 0.336 | 0.488 | 0.762
in n-propanol | 0.0727 | 0.0992 | 0.132 | 0.183 | 0.253 | 0.355 | 0.492
in toluene | 0.35 | 0.413 | 0.491 | 0.569 | 0.653 | 0.724 | 0.862
